According to patent US20260325533A1, “CDK INHIBITOR COMPOUNDS” (ALEKSIA THERAPEUTICS, INC., priority 2023, published 2026):
Where two headings read alike, the source gives them in different places.

How the values were obtained:
Assay type in all cases: biochemical
CDK2/CCNE1 = CDK2/CCNE1 (Homo sapiens, UniProt P24941); assay: CDK2 homogeneous time-resolved fluorescence (HTRF) kinase assay; conditions: CDK2/CCNE
How it was run: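 3 nM CDK2/CCNE1 was preincubated with compound for 20 min at 23 °C in HEPES buffer (pH not stated), then reacted 60 min with 1 mM ATP and 50 nM ULight-4E-BP1 (Thr37/46) peptide. After EDTA stop, Eu-anti-phospho-4E-BP1 antibody (2 nM) was added for 60 min and TR-FRET read at 665 nm.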

CDK1/CCNB1 = CDK1/CCNB1 (Homo sapiens, UniProt P06493); assay: CDK1 homogeneous time-resolved fluorescence (HTRF) kinase assay; conditions: CDK1/CCNB
CDK1/CCNB1, sequence (P06493 whole entry): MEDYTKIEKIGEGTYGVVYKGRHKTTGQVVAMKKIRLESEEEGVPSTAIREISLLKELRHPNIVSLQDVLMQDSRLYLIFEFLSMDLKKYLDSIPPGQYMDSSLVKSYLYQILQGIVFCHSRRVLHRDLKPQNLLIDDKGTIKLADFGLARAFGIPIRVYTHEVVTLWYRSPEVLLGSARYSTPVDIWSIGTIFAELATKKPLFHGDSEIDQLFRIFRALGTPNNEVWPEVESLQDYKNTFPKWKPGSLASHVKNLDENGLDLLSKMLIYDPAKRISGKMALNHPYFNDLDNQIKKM
CDK1/CCNB1, sequence (P14635 whole entry partner): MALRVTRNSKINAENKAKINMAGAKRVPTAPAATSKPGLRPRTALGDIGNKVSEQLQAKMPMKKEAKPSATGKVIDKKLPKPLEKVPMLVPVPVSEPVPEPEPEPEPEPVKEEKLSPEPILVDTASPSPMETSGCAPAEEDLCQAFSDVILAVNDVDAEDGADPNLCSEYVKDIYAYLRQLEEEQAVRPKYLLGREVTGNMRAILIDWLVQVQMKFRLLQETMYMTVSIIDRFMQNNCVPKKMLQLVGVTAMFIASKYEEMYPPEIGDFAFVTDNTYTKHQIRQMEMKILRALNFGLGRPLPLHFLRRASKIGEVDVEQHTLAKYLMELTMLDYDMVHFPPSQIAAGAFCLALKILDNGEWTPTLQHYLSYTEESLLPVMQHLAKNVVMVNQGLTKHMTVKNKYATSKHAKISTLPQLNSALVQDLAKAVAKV
How it was run: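 Read-out: TR-FRET (Eu anti-phospho-4E-BP1 Thr37/46 antibody, 2 nM; 665 nm or 665/615 ratio) after 60 min phosphorylation of 50 nM ULight-peptide by 0.5 nM CDK1/CCNB1 at 1 mM ATP, 23 °C. Compound preincubated 20 min with enzyme; 1% DMSO.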

CDK4/CCND3 = CDK4/CCND3 (Homo sapiens, UniProt P11802); assay: CDK4 homogeneous time-resolved fluorescence (HTRF) kinase assay; conditions: CDK4/CCND
CDK4/CCND3, sequence (P11802 whole entry): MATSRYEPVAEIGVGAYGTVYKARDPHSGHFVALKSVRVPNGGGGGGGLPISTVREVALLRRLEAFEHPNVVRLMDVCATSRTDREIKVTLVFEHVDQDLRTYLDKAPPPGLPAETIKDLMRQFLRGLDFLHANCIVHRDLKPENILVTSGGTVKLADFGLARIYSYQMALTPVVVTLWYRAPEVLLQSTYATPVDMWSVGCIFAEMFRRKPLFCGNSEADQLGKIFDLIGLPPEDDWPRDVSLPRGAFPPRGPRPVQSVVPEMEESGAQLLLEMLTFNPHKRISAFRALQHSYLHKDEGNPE
CDK4/CCND3, sequence (P30281 whole entry partner): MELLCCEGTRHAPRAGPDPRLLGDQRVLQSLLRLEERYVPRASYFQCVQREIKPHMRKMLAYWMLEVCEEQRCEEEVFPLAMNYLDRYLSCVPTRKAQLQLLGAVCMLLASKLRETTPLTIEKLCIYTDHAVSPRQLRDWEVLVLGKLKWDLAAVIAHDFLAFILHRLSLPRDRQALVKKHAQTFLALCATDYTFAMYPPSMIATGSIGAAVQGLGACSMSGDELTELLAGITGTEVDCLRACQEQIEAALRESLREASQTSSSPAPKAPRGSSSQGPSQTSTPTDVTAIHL
How it was run: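 Compounds were preincubated with 1.5 nM CDK4/CCND3 for 20 min at 23 °C in HEPES buffer (pH not given), then reacted 60 min with 1 mM ATP and 50 nM ULight-4E-BP1 (Thr37/46) peptide. EDTA stop, Eu-anti-phospho-4E-BP1 detection; 665/615 nm ratio; IC50 from 11-point half-log titrations from 10 μM.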

CDK6/CCND1 = CDK6/CCND1 (Homo sapiens, UniProt Q00534); assay: CDK6 homogeneous time-resolved fluorescence (HTRF) kinase assay; conditions: CDK6/CCND, 1 mM ATP
CDK6/CCND1, sequence (Q00534 whole entry): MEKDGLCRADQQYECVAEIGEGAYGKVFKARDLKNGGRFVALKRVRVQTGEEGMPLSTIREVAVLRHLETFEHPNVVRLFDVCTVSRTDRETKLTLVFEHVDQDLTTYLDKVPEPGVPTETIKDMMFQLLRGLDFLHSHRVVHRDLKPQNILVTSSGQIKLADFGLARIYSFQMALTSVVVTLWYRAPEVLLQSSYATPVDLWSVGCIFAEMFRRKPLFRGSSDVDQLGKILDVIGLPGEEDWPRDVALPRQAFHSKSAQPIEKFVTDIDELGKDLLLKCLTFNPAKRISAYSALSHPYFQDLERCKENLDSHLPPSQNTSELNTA
CDK6/CCND1, sequence (P24385 whole entry partner): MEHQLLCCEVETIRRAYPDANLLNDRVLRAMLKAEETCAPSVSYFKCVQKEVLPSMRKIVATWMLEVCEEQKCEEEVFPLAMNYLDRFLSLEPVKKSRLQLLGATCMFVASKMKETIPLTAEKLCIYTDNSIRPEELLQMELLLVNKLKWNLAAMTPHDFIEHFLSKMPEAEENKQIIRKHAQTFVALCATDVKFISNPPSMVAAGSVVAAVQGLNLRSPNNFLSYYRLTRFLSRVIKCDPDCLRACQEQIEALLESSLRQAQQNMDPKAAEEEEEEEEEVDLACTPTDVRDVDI
How it was run: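 1 nM enzyme, 1 mM ATP, 50 nM ULight-4E-BP1 (Thr37/46) peptide, 1% DMSO; 20 min compound preincubation, 60 min reaction, 23 °C. EDTA stop, 2 nM Eu-anti-phospho-4E-BP1 antibody 60 min. TR-FRET 665 nm (or 665/615 ratio); IC50 from 11-point half-log titration, top 10 μM.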

[1] = 25-250 nM, read-out: CDK2/CCNE IC50, 25-250 nM
[2] = >250 nM, read-out: CDK1/CCNB IC50 >250 nM
[3] = >250 nM, read-out: CDK4/CCND IC50, >250 nM
[4] = >250 nM, read-out: CDK6/CCND IC50, >250 nM
[5] = <25 nM, read-out: CDK2/CCNE IC50, <25 nM
[6] = 25-250 nM, read-out: CDK1/CCNB IC50, 25-250 nM
[7] = 25-250 nM, read-out: CDK4/CCND IC50, 25-250 nM
[8] = 25-250 nM, read-out: CDK6/CCND IC50, 25-250 nM

Row | Compound | IC50 (CDK2/CCNE1; [1]) [nM] | IC50 (CDK1/CCNB1; [2]) [nM] | IC50 (CDK4/CCND3; [3]) [nM] | IC50 (CDK6/CCND1; [4]) [nM] | IC50 (CDK2/CCNE1; [5]) [nM] | IC50 (CDK1/CCNB1; [6]) [nM] | IC50 (CDK4/CCND3; [7]) [nM] | IC50 (CDK6/CCND1; [8]) [nM]
1 | Cc1c(-c2nccc3cnc(Nc4ccc(NS(=O)(=O)c5cn(C)cn5)cc4)cc23)ccc2c1cnn2CC(C)(C)O [Ex 828, N-(4-((5-(1-(2-hydroxy-2-methylpropyl)-4-methyl-1H-indazol-5-yl)-2,6-naphthyridin-3-yl)amino)phenyl)-1-methyl-1H-imidazole-4-sulfonamide] | – | – | – | – | < 25 | 25 to 250 | 25 to 250 | 25 to 250
2 | Cc1nn(C)c(C)c1S(=O)(=O)Nc1ccc(Nc2cc3c(-c4ccc5c(cnn5CC(C)(C)O)c4C)nccc3cn2)cc1 [Ex 830, N-(4-((5-(1-(2-hydroxy-2-methylpropyl)-4-methyl-1H-indazol-5-yl)-2,6-naphthyridin-3-yl)amino)phenyl)-1,3,5-trimethyl-1H-pyrazole-4-sulfonamide] | – | > 250 | > 250 | > 250 | < 25 | – | – | –
3 | Cc1oncc1S(=O)(=O)Nc1ccc(Nc2cc3c(-c4ccc5c(cnn5CC(C)(C)O)c4C)nccc3cn2)cc1 [Ex 833, N-(4-((5-(1-(2-hydroxy-2-methylpropyl)-4-methyl-1H-indazol-5-yl)-2,6-naphthyridin-3-yl)amino)phenyl)-5-methylisoxazole-4-sulfonamide] | 25 to 250 | > 250 | > 250 | > 250 | – | – | – | –
4 | Cc1c(-c2nccc3cnc(Nc4ccc(NS(=O)(=O)c5cnn(C)c5)cc4)cc23)ccc2c1cnn2CC(C)(C)O [Ex 835, N-(4-((5-(1-(2-hydroxy-2-methylpropyl)-4-methyl-1H-indazol-5-yl)-2,6-naphthyridin-3-yl)amino)phenyl)-1-methyl-1H-pyrazole-4-sulfonamide] | – | – | – | – | < 25 | 25 to 250 | 25 to 250 | 25 to 250

Next, values leading:

Row | IC50 (CDK2/CCNE1; [1]) [nM] | IC50 (CDK1/CCNB1; [2]) [nM] | IC50 (CDK4/CCND3; [3]) [nM] | IC50 (CDK6/CCND1; [4]) [nM] | IC50 (CDK2/CCNE1; [5]) [nM] | IC50 (CDK1/CCNB1; [6]) [nM] | IC50 (CDK4/CCND3; [7]) [nM] | IC50 (CDK6/CCND1; [8]) [nM] | Compound
5 | 25 to 250 | > 250 | > 250 | > 250 | – | – | – | – | Cc1c(-c2nccc3cnc(Nc4ccc(NS(=O)(=O)c5ccc(Cl)s5)cc4)cc23)ccc2c1cnn2CC(C)(C)O [Ex 827, 5-chloro-N-(4-((5-(1-(2-hydroxy-2-methylpropyl)-4-methyl-1H-indazol-5-yl)-2,6-naphthyridin-3-yl)amino)phenyl)thiophene-2-sulfonamide]
6 | – | > 250 | > 250 | > 250 | < 25 | – | – | – | CCc1ccc(S(=O)(=O)Nc2ccc(Nc3cc4c(-c5ccc6c(cnn6CC(C)(C)O)c5C)nccc4cn3)cc2)s1 [Ex 829, 5-ethyl-N-(4-((5-(1-(2-hydroxy-2-methylpropyl)-4-methyl-1H-indazol-5-yl)-2,6-naphthyridin-3-yl)amino)phenyl)thiophene-2-sulfonamide]
7 | – | > 250 | > 250 | > 250 | < 25 | – | – | – | Cc1c(-c2nccc3cnc(Nc4ccc(NS(=O)(=O)c5ccsc5)cc4)cc23)ccc2c1cnn2CC(C)(C)O [Ex 831, N-(4-((5-(1-(2-hydroxy-2-methylpropyl)-4-methyl-1H-indazol-5-yl)-2,6-naphthyridin-3-yl)amino)phenyl)thiophene-3-sulfonamide]
8 | – | – | – | – | < 25 | 25 to 250 | 25 to 250 | 25 to 250 | Cc1c(-c2nccc3cnc(Nc4ccc(NS(=O)(=O)c5ccn(C)n5)cc4)cc23)ccc2c1cnn2CC(C)(C)O [Ex 832, N-(4-((5-(1-(2-hydroxy-2-methylpropyl)-4-methyl-1H-indazol-5-yl)-2,6-naphthyridin-3-yl)amino)phenyl)-1-methyl-1H-pyrazole-3-sulfonamide]
9 | – | > 250 | > 250 | > 250 | < 25 | – | – | – | Cc1c(-c2nccc3cnc(Nc4ccc(NS(=O)(=O)c5cccs5)cc4)cc23)ccc2c1cnn2CC(C)(C)O [Ex 834, N-(4-((5-(1-(2-hydroxy-2-methylpropyl)-4-methyl-1H-indazol-5-yl)-2,6-naphthyridin-3-yl)amino)phenyl)thiophene-2-sulfonamide]
